Active and inactive are the calls of the source. How the calls were made is not given here.
Key:
[1] = molecular target: Monoacylglycerol lipase ABHD6 (Mus musculus) (UniProt Q8R2Y0); assay: DAGLb and ABHD6 inhibitors by competitive ABPP – biochemical, gel-based competitive ABPP, fluorescent probe, mouse, selectivity assay for DAGLb inhibitor project, dose response (AID 602322); settings: proteome
[2] = molecular target: Diacylglycerol lipase-beta (Mus musculus) (UniProt Q91WC9); assay: as above; settings: proteome, DAGLb
Sequence of Diacylglycerol lipase-beta (Mus musculus) (Q91WC9 whole entry, looked up): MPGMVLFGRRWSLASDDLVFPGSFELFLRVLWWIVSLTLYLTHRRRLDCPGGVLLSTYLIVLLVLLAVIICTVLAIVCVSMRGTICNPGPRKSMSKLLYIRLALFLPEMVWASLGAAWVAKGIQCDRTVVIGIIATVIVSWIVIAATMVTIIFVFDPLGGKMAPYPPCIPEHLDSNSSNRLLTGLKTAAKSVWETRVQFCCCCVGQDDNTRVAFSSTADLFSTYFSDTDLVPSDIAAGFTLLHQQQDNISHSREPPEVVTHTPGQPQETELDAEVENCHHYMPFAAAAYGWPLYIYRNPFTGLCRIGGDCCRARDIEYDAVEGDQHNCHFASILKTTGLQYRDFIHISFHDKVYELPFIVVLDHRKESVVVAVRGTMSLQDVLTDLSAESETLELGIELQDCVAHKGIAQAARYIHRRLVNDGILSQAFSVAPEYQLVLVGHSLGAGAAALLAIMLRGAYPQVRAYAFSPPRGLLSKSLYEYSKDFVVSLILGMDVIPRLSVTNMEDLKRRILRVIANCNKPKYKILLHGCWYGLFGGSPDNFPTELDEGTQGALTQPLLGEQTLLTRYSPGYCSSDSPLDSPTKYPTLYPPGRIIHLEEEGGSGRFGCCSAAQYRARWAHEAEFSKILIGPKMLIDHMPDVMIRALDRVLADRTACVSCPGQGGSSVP

Sequence of Monoacylglycerol lipase ABHD6 (Mus musculus) (Q8R2Y0 whole entry, looked up): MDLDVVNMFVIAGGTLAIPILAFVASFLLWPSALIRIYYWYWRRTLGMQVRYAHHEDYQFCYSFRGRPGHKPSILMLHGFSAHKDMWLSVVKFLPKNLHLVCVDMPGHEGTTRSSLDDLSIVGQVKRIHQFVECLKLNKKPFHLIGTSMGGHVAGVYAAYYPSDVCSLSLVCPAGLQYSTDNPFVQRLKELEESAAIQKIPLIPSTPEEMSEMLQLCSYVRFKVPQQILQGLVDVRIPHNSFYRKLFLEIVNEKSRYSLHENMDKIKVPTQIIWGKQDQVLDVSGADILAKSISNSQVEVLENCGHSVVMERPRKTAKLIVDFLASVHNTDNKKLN

IC50 [1] | IC50 [2] | Structure (SMILES)
9.9 nM | > 100 nM (inactive) | O=C(N1CCCCC1c1ccccc1)n1cc(-c2ccc(-c3ccccc3)cc2)nn1 (stereo unspecified)
 | > 100 nM (inactive) | O=C(N1CCCCC1c1ccccc1)n1cc(-c2ccc(-c3cccc(CO)c3)cc2)nn1 (stereo unspecified)
38 nM | > 3330 nM (inactive) | COc1ccc(-c2ccc(-c3cn(C(=O)N4CCCCC4c4ccccc4)nn3)cc2)cc1 (stereo unspecified)
 | > 100 nM (inactive) | O=C(O)c1cccc(-c2ccc(-c3cn(C(=O)N4CCCCC4Cc4ccccc4)nn3)cc2)c1 (stereo unspecified)

— PubChem BioAssay AID602322 (The Scripps Research Institute Molecular Screening Center, 2012)
